Experimental data as given in patent US5583018A, “Rapamycin derivative process for its preparation and its use” (SmithKline Beecham p.l.c., priority 1993, dated 1996).

Assays:
[1] = test system: Saccharomyces cerevisiae; assay: Assay for antifungal activity (agar well zone of inhibition); type: cell-based
Method: Yeast organism (Saccharomyces cerevisiae) in logarithmic growth were plated on complete agar medium (YPD). Compounds dissolved in an appropriate aqueous or organic solvent were placed in wells punched in the agar. Plates were incubated for 48 hours and zones of inhibition were measured. The potency of compounds were quantified by regression analysis of plots of inhibition zone versus the log of drug concentration.

[2] = test system: Spleen cells; assay: Mitogenesis assay for immunosuppressive activity (Concanavalin A stimulated spleen cells, 3H-thymidine); type: cell-based, BDF1 female mice
Method: Spleen cells for BDF1 female mice were established in RPMI with 10% fetal calf serum at 5×10^6 /mL. One hundred […] of this suspension (5×10^5 cells) were dispensed into 96-well round-bottomed microtiter plates (Linbro, Flow Laboratories). Concanavalin A (5 μg/ml) was added as the mitogenic stimulus, and the final volume in the microliter wells was adjusted to 200 μL with RPMI. Cell cultures were incubated for 72 hours at 37° C. in a 5% CO2 atmosphere and pulsed with 0,5 μCi ^3 H-thymidine (specific activity […]) for the last 18 hours of the 72 hours culture. The cells were harvested on an automated multiple sample harvester and cell-associated radioactivity counted in a Beckman liquid scintillation counter. The results were expressed as the mean values derived from quadruplicate measurements. Cell viability was determined by trypan blue exclusion after 72 hours of incubation. Compounds to be tested were added to the microtiler plates at the appropriate dilutions prior to the addition of cells.

13,14-Bis(dihydro)rapamycin
antifungal activity (in words) [1]: shows antifungal activity
Antifungal Activity, IC12 ([1]; Saccharomyces cerevisiae on YPD agar, 48 hours, zones of inhibition): 190 to 840 ng/mL
immunomodulatory activity (in words) [2]: shows immunomodulatory activity
IC50 ([2]; spleen cells of BDF1 mice, Concanavalin A 5 μg/ml, 72 hours): 70 to 200 nM
